Results as given in ChEMBL document CHEMBL5465560, “Selectivity Literature for EUbOPEN Chemogenomic Library” (2024).
One block for each molecule: values may come before it.

How the values were obtained:
[1] = biological target: Tyrosine-protein kinase Srms (Homo sapiens) (UniProt Q9H3Y6); settings: at 10 µM
[2] = biological target: Tyrosine-protein kinase Fes/Fps (Homo sapiens) (UniProt P07332); assay: Selectivity interaction (KinomeScan (DiscoverX)) EUB0001049a FES; settings: at 1 µM
[3] = biological target: Serine/threonine-protein kinase NIM1 (Homo sapiens, UniProt Q8IY84); assay: Selectivity interaction (Ambit KINOMEscan and KiNATiv profiling in Jurkat cells) EUB0000090b NIM1K; assay type: cell-based; settings: at 1 µM
[4] = biological target: Ribosomal protein S6 kinase alpha-2 (Homo sapiens) (UniProt Q15349); assay: Selectivity interaction (Ambit KINOMEscan and KiNATiv profiling in Jurkat cells) EUB0000090b RPS6KA2; assay type: cell-based; settings: at 1 µM
[5] = biological target: Homeodomain-interacting protein kinase 1 (Homo sapiens, UniProt Q86Z02); assay: Selectivity interaction (Kinase panel (Invitrogen)) EUB0000639a HIPK1; settings: at 200 nM
[6] = biological target: T1, Inhibitor of nuclear factor kappa-B kinase subunit beta (Homo sapiens) (UniProt O14920); assay: Selectivity interaction (ActivX KiNativ screen (kinase selectivity in THP-1 cell lysates)) EUB0000639a IKBKB; assay type: subcellular; settings: lysate, at 1 µM
T1 sequence (whole entry): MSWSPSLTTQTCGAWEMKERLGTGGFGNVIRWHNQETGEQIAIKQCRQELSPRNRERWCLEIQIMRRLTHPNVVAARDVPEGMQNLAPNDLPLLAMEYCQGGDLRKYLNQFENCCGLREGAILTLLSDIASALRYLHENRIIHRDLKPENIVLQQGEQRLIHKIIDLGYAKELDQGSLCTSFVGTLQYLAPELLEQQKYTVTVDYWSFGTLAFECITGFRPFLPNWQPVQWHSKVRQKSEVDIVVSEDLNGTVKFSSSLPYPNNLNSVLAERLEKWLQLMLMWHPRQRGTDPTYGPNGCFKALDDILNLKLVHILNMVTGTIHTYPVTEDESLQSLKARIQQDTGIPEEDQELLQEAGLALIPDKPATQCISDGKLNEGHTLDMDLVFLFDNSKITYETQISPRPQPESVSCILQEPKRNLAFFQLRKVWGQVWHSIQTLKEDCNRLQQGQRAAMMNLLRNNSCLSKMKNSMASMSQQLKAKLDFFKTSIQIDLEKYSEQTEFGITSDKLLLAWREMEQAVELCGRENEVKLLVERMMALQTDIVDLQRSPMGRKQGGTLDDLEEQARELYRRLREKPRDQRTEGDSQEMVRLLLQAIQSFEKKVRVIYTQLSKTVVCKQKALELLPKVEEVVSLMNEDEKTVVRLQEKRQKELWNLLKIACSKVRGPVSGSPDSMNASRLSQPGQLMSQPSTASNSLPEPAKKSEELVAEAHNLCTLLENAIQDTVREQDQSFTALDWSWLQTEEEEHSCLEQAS

[7] = biological target: T2, Dual specificity mitogen-activated protein kinase kinase 6 (Homo sapiens) (UniProt P52564); assay: Selectivity interaction (Kinase panel (Invitrogen)) EUB0000639a MAP2K6; settings: at 200 nM
T2 sequence (whole entry): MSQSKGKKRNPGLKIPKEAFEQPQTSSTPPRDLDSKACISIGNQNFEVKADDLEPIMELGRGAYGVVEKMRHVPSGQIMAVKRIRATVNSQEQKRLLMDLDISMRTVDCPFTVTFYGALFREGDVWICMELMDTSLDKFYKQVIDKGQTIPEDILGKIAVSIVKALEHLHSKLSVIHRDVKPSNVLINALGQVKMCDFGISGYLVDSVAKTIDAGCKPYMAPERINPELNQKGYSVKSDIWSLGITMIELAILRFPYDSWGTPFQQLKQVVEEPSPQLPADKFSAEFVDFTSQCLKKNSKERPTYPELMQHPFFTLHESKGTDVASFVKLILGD

[8] = Selectivity interaction (Ex-vivo activation of CD20+ B cells in cynomolgus (anti-IgM/IL-4 stimulated pAKT)) EUB0000877a PIK3CD
[9] = biological target: Ephrin type-A receptor 7 (Homo sapiens) (UniProt Q15375); settings: at 10 µM
[10] = biological target: Sodium-dependent serotonin transporter (Homo sapiens, UniProt P31645); assay: Selectivity interaction (GPCR panel (PDSP screen)) EUB0001079a SLC6A4; settings: at 10 µM
[11] = biological target: T3, Rhodopsin kinase GRK1 (Homo sapiens) (UniProt Q15835); assay: Selectivity interaction (KinomeScan (DiscoverX)) EUB0000655a GRK1; settings: at 10 µM
T3 sequence (whole entry): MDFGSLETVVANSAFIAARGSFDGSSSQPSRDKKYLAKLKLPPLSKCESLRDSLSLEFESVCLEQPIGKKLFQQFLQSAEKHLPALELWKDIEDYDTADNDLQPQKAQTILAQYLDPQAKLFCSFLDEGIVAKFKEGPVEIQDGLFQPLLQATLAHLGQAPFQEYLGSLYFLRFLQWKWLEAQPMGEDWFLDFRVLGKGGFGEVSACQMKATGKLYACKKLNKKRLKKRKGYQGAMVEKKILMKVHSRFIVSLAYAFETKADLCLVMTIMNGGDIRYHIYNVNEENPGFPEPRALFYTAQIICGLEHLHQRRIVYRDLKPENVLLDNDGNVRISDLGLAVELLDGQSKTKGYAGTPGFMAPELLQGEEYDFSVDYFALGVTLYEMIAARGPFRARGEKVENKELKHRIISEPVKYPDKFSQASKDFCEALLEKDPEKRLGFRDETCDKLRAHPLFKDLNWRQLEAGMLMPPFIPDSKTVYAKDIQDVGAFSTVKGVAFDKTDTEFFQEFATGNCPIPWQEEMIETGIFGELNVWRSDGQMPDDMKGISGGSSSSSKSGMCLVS

[12] = biological target: Serine/threonine-protein kinase WNK3 (Homo sapiens) (UniProt Q9BYP7); assay: Selectivity interaction (KinomeScan (DiscoverX)) EUB0001619a WNK3; settings: at 1 µM
[13] = biological target: Tyrosine-protein kinase ABL2 (Homo sapiens, UniProt P42684); assay: Selectivity interaction (KinomeScan (DiscoverX)) EUB0000618a ABL2; settings: at 10 µM
[14] = biological target: Citron Rho-interacting kinase (Homo sapiens) (UniProt O14578); assay: Selectivity interaction (KinomeScan (DiscoverX)) EUB0000618a CIT; settings: at 10 µM
[15] = biological target: Calcium/calmodulin-dependent protein kinase type II subunit delta (Homo sapiens) (UniProt Q13557); assay: Selectivity interaction (SelectScreen profiling (Invitrogen)) EUB0000607a CAMK2D; settings: at 2 µM
Sequence of Calcium/calmodulin-dependent protein kinase type II subunit delta (Homo sapiens) (Q13557 whole entry): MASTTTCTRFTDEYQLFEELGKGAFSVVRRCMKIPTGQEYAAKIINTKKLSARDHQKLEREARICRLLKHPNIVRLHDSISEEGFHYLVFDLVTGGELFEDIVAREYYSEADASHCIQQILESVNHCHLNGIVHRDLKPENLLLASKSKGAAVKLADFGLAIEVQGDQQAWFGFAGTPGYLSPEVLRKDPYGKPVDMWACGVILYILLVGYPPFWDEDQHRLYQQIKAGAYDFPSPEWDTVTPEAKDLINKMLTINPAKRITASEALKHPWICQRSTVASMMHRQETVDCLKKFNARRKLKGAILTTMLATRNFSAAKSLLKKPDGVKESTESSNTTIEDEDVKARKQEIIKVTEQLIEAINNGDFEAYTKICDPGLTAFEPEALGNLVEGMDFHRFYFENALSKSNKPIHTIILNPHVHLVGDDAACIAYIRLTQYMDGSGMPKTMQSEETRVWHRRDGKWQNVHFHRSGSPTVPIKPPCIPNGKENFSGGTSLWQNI

Sequence of Tyrosine-protein kinase Fes/Fps (Homo sapiens) (P07332 whole entry): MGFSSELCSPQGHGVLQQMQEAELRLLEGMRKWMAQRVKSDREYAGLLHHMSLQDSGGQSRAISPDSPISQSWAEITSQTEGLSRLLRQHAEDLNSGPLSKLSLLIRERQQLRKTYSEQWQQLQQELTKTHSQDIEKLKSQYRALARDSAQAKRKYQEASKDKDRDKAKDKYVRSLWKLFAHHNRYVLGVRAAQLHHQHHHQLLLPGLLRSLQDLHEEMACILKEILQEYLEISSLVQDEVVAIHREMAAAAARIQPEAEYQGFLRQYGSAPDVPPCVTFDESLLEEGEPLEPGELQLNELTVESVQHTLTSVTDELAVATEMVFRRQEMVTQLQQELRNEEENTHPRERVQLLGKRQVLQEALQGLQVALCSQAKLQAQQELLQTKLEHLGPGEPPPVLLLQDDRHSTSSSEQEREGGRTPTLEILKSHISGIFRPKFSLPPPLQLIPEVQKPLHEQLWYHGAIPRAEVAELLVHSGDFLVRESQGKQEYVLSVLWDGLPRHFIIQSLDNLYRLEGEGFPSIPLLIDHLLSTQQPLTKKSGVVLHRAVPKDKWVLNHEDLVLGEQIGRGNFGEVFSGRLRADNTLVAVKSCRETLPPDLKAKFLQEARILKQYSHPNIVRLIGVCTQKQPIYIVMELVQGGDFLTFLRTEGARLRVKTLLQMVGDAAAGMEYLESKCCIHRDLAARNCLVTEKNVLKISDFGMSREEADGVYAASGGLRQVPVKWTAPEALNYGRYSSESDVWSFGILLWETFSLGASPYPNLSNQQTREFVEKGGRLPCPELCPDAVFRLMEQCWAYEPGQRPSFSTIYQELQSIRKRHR
Sequence of Ephrin type-A receptor 7 (Homo sapiens) (Q15375 28-998 limits assumed): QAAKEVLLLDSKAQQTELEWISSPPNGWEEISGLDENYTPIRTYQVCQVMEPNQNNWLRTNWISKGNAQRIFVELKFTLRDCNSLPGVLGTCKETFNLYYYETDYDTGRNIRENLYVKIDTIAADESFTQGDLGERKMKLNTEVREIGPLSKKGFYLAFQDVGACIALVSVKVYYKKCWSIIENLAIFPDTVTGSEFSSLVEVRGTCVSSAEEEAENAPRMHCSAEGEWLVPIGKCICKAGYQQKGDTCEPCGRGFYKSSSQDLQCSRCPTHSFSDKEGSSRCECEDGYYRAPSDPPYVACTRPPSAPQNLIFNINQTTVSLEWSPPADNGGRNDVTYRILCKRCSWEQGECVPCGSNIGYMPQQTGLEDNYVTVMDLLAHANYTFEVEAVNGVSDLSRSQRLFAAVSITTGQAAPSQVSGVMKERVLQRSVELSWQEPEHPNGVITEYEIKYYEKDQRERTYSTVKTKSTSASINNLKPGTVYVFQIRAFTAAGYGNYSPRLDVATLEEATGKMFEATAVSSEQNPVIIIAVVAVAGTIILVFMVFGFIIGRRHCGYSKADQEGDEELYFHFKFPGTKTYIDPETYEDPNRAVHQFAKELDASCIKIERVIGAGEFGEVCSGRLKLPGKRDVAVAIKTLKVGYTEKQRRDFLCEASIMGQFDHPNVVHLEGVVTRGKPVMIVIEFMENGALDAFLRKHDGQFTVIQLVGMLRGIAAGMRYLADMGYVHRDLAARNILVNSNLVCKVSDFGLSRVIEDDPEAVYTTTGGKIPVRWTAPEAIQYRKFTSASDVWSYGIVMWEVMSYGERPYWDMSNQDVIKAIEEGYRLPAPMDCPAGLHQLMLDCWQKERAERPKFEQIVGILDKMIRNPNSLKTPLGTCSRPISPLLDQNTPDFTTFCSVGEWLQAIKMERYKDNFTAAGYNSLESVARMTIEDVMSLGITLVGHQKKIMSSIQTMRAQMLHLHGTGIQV
Sequence of Tyrosine-protein kinase Srms (Homo sapiens) (Q9H3Y6 whole entry): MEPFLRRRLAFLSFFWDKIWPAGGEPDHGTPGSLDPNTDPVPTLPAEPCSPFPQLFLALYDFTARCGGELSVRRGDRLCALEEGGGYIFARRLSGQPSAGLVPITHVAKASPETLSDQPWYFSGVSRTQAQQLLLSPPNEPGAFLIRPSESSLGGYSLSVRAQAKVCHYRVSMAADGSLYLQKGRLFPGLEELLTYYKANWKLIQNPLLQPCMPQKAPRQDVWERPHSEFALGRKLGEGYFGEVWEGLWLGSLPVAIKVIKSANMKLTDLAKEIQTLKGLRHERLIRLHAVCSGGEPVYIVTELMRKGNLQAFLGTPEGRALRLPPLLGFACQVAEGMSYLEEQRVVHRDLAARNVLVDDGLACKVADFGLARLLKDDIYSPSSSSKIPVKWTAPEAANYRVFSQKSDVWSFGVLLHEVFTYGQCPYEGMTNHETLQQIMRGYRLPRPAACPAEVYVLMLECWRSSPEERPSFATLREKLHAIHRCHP
Sequence of Tyrosine-protein kinase ABL2 (P42684 whole entry): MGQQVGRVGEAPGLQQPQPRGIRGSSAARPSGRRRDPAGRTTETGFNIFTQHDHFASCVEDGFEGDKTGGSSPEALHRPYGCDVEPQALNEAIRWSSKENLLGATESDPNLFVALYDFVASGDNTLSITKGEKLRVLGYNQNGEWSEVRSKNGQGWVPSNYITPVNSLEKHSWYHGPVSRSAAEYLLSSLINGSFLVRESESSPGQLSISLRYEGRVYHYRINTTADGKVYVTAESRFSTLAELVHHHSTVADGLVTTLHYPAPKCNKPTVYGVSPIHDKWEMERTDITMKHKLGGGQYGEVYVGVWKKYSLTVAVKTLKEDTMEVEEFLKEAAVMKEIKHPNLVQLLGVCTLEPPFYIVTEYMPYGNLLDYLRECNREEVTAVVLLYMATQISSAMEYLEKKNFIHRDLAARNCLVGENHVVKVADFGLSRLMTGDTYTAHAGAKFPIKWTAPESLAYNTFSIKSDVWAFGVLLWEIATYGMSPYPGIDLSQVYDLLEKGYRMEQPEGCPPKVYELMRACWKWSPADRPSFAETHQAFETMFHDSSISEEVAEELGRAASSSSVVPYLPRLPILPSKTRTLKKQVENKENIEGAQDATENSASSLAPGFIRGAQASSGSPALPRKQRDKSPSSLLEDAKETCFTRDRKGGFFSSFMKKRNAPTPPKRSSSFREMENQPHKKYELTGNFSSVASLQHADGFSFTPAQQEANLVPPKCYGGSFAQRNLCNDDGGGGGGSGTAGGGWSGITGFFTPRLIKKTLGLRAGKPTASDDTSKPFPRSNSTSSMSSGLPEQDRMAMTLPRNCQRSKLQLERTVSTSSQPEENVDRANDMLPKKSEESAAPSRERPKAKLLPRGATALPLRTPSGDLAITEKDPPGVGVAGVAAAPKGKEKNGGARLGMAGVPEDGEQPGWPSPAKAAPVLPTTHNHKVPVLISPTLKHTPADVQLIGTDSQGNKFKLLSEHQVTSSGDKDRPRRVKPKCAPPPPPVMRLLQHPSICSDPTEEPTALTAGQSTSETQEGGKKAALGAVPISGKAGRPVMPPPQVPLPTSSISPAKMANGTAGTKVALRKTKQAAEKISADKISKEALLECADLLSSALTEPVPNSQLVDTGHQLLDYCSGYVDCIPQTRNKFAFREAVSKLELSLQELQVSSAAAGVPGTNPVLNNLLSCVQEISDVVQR
Sequence of Serine/threonine-protein kinase NIM1 (Q8IY84 whole entry): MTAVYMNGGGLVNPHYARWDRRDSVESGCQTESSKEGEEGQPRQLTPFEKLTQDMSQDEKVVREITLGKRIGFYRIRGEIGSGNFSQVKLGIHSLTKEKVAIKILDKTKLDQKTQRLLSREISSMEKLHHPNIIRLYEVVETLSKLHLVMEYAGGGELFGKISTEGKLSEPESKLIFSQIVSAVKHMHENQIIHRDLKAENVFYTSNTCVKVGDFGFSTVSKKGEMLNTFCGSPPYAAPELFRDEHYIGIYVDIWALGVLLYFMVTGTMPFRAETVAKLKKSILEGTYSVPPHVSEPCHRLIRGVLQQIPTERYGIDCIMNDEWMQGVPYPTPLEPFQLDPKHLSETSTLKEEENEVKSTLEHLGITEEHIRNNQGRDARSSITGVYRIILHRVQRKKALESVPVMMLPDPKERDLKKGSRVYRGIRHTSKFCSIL
Sequence of Sodium-dependent serotonin transporter (P31645 whole entry, looked up): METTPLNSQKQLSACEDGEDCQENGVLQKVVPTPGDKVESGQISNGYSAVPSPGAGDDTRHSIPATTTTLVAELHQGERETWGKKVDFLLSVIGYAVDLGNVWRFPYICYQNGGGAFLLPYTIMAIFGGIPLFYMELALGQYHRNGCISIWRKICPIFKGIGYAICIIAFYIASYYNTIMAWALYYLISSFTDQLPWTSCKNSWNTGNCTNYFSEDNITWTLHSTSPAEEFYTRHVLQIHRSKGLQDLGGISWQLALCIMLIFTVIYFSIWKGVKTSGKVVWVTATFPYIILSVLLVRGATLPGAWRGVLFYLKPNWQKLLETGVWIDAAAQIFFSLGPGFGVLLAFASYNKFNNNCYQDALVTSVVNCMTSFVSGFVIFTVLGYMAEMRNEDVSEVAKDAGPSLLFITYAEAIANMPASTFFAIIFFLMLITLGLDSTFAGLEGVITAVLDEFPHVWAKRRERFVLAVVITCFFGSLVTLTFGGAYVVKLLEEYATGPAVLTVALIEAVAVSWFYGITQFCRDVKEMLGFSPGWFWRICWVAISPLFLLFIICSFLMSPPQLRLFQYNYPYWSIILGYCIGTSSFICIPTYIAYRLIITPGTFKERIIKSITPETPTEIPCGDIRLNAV

Structure (SMILES): Cc1cc([C@@H](C)Nc2ccccc2C(=O)O)c2nc(N3CCOCC3)cc(=O)n2c1 [AZD-6482]
% of control [1]: 63%

Structure (SMILES): COc1cc(Nc2nc(C)cc(-c3cnn4nc(OC)ccc34)n2)cc(C(F)(F)F)c1
% of control [2]: 95%

Structure (SMILES): CN(C)C/C=C/C(=O)Nc1ccc(C(=O)N2CCCC(Nc3ncc(Cl)c(-c4c[nH]c5ccccc45)n3)C2)cc1 (stereo not given)
% of control [3]: 93% | % of control [4]: 55%

% of inhibition [5]: 7.68% | % of inhibition [6]: -6.6% | % of inhibition [7]: 14.8%
Structure (SMILES): CC[C@@H]1[C@H](F)C(=O)N[C@@H]1COc1nccc2cc(C(N)=O)c(OC)cc12 [ZIMLOVISERTIB]

EC50 [8]: 0.14 µM
Structure (SMILES): CCC(=O)N1CC[C@H](Nc2ncnc3c2CN(c2cnc(OC)c(C(F)(F)F)c2)CC3)C1 [LENIOLISIB]

% of control [9]: 100%
Structure (SMILES): CCN(CC)CCCCNc1ncc2cc(-c3cc(OC)cc(OC)c3)c(NC(=O)NC(C)(C)C)nc2n1

Structure (SMILES): Nc1cnc(N2CCc3cc(S(=O)(=O)Nc4c(F)cc(Cl)cc4F)cc(N4CCCC4=O)c32)nc1 [TP-020n]
% of inhibition [10]: 9.34%

Structure (SMILES): CN(C)CCOc1ccc(-c2nc(-c3ccncc3)c(-c3ccc4c(c3)CC/C4=N\O)[nH]2)cc1
% of control [11]: 91%

Structure (SMILES): N#Cc1cccc(-c2c[nH]c3ncnc(N4CCOCC4)c23)c1
% of control [12]: 100%

Structure (SMILES): O[C@H]1CC[C@H](Nc2ncc3nc(Nc4c(F)cc(F)cc4F)n([C@H]4CCOC4)c3n2)CC1
% of control [13]: 100% | % of control [14]: 96%

Structure (SMILES): CNC(=O)Nc1ccc(-c2nc(N3CC4CCC(C3)O4)c3cnn(C4CCC5(CC4)OCCO5)c3n2)cc1
% of inhibition [15]: 11%
